{"source": "ChEMBL document CHEMBL4184323", "about": "“Structure-Guided Design, Synthesis, and Characterization of Next-Generation Meprin β Inhibitors” (J Med Chem, 2018)", "key": {"Meprin A subunit beta": {"target": "T1, Meprin A subunit beta (Homo sapiens, UniProt Q16820)", "T1 sequence (Q16820 whole entry)": "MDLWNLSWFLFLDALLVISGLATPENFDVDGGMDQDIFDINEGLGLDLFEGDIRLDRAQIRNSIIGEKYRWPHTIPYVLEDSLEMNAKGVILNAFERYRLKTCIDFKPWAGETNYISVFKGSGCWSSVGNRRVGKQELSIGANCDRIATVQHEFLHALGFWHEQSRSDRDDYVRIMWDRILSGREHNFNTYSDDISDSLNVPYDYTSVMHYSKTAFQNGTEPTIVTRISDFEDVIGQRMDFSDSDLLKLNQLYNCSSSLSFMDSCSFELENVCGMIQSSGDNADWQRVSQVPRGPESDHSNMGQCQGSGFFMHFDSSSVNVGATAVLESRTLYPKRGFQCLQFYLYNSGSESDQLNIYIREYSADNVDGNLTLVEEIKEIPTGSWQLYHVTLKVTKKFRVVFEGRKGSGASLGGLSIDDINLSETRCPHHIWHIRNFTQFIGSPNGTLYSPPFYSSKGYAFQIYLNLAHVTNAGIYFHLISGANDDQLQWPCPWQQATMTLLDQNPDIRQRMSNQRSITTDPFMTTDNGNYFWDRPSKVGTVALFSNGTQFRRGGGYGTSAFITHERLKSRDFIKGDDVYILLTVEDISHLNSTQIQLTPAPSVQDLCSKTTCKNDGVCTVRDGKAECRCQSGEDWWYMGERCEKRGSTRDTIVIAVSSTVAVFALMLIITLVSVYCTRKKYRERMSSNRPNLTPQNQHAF", "description": "Inhibition of recombinant human meprin beta expressed in yeast using Abz-YVAEAPK(Dnp)G-OH as substrate by fluorescence assay"}, "MMP2": {"target": "MMP2 (Homo sapiens, UniProt P08253)", "sequence (P08253 whole entry)": "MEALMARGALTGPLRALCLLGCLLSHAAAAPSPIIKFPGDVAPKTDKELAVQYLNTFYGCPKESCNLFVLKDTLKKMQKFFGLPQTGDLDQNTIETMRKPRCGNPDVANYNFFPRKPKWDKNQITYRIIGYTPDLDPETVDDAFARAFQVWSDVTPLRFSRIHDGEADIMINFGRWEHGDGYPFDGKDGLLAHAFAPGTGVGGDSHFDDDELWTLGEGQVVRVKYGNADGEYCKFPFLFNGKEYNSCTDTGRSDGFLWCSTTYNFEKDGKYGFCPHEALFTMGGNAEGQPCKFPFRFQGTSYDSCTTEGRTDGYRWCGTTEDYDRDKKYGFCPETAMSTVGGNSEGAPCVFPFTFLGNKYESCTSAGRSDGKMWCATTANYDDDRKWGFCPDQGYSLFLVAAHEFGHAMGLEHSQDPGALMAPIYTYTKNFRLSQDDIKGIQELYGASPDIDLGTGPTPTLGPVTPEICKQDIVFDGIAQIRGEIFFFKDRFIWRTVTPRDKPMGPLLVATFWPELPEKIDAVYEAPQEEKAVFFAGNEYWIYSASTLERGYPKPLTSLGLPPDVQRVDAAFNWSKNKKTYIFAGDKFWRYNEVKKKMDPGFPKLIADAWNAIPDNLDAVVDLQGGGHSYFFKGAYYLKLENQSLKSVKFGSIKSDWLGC", "assay": "Inhibition of human MMP2 assessed as residual activity using Mca-PLGL-(DapDnp)-AR-NH2 as substrate at 200 uM by fluorescence assay relative to control", "conditions": "human MMP2 enzyme, probe Mca-PLGL-(DapDnp)-AR-NH2, read-out: Activity"}, "MMP13": {"target": "MMP13 (Homo sapiens, UniProt P45452)", "assay": "Inhibition of human MMP13 assessed as residual activity using Mca-PLGL-(DapDnp)-AR-NH2 as substrate at 200 uM by fluorescence assay relative to control", "conditions": "human MMP13 enzyme, probe Mca-PLGL-(DapDnp)-AR-NH2, read-out: Activity"}, "MMP9": {"target": "MMP9 (Homo sapiens, UniProt P14780)", "sequence (P14780 whole entry)": "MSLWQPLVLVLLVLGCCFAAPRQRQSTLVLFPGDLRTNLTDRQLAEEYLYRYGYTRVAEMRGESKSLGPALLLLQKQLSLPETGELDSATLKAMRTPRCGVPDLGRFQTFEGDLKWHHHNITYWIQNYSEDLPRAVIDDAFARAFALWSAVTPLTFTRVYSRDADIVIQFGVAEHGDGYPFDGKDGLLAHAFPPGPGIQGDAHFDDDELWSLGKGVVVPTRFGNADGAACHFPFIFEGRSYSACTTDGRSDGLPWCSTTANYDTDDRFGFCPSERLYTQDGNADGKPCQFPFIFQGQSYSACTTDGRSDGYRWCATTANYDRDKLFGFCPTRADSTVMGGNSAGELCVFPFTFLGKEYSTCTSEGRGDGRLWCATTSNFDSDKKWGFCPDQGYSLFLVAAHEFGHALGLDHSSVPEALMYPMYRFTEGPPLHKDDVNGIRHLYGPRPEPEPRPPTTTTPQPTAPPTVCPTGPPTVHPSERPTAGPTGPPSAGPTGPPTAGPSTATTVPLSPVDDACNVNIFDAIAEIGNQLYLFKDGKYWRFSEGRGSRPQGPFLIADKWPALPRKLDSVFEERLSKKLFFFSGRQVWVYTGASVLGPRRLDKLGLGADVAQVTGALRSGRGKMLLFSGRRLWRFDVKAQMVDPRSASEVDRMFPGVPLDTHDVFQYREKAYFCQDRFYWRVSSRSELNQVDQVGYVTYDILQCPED", "assay": "Inhibition of human MMP9 assessed as residual activity using Mca-PLGL-(DapDnp)-AR-NH2 as substrate at 200 uM by fluorescence assay relative to control", "conditions": "human MMP9 enzyme, probe Mca-PLGL-(DapDnp)-AR-NH2, read-out: Activity"}, "ADAM10": {"target": "T2, ADAM10 (Homo sapiens, UniProt O14672)", "T2 sequence (O14672 whole entry)": "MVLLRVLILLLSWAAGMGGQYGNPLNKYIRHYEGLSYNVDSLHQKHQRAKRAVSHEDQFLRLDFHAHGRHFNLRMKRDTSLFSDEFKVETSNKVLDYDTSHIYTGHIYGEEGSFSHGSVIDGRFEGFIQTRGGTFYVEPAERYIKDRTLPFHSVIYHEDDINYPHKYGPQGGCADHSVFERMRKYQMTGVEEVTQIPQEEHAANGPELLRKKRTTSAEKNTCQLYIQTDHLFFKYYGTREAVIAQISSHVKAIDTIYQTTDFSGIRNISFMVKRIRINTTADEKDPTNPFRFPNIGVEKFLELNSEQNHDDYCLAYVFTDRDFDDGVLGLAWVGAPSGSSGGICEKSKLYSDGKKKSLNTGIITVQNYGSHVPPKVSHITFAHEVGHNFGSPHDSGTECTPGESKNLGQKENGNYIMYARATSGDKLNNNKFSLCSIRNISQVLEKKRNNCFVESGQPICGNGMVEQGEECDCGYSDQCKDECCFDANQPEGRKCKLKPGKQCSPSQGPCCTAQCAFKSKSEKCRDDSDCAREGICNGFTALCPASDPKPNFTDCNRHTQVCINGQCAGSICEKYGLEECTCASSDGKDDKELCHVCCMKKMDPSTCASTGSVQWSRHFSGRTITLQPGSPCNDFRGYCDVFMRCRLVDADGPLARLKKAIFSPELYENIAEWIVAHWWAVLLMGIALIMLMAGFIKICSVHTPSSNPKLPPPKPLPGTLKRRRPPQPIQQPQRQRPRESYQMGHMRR", "assay": "Inhibition of human ADAM10 assessed as residual activity using Abz-LANAVRSSSR-(DapDnp)-AR-NH2 as substrate at 200 uM by fluorescence assay relative to control", "conditions": "human ADAM10 enzyme, probe Abz-LANAVRSSSR-(DapDnp)-AR-NH2, read-out: Activity"}, "CYP2C9": {"target": "CYP2C9 (Homo sapiens, UniProt P11712)", "sequence (P11712 whole entry)": "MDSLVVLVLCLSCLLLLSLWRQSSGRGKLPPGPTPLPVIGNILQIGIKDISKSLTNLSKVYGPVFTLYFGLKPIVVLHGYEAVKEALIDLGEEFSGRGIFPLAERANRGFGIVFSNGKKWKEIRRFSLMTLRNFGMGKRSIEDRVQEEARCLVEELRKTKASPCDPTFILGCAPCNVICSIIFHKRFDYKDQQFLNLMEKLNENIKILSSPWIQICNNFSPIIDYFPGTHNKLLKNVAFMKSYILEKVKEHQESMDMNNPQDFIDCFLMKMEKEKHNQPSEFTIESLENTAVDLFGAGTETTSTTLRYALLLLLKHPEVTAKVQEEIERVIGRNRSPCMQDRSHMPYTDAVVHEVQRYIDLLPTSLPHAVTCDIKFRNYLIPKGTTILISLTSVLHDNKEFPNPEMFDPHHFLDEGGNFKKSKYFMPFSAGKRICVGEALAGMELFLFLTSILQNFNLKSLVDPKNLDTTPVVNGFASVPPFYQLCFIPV", "assay": "Inhibition of recombinant human CYP2C9 expressed in baculosomes assessed as residual activity at 25 uM using BOMCC substrate by fluorescence assay relative to control", "format": "ADME", "conditions": "probe BOMCC, read-out: Activity"}, "CYP3A4": {"target": "CYP3A4 (Homo sapiens, UniProt P08684)", "sequence (P08684 whole entry)": "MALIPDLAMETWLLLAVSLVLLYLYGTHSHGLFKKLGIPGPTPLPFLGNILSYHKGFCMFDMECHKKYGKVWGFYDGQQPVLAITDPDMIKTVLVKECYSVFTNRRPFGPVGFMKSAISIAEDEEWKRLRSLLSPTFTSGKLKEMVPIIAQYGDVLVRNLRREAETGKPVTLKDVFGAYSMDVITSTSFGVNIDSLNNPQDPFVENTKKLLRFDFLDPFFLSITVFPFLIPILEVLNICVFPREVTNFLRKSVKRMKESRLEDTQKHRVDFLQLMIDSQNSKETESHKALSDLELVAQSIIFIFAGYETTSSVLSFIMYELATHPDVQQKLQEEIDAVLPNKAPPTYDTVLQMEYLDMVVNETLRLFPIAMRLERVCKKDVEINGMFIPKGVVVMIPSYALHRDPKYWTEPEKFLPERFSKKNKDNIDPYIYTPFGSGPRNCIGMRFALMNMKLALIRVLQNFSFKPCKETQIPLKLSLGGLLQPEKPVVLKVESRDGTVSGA", "assay": "Inhibition of recombinant human CYP3A4 expressed in baculosomes assessed as residual activity at 25 uM using BOMCC substrate by fluorescence assay relative to control", "format": "ADME", "conditions": "probe BOMCC, read-out: Activity"}, "SH-SY5Y": {"test_system": "SH-SY5Y", "assay": "Cytotoxicity in human SH-SY5Y cells assessed as cell viability at 30 uM after 24 hrs by CytoTox-ONE-based assay relative to control", "format": "functional", "conditions": "read-out: Activity"}, "HepG2": {"test_system": "HepG2", "assay": "Cytotoxicity in human HepG2 cells assessed as cell viability at 30 uM after 24 hrs by CytoTox-ONE-based assay relative to control", "format": "functional", "conditions": "HepG2, 24 h, read-out: Activity"}, "ADAM17": {"target": "ADAM17 (Homo sapiens, UniProt P78536)", "sequence (P78536 whole entry)": "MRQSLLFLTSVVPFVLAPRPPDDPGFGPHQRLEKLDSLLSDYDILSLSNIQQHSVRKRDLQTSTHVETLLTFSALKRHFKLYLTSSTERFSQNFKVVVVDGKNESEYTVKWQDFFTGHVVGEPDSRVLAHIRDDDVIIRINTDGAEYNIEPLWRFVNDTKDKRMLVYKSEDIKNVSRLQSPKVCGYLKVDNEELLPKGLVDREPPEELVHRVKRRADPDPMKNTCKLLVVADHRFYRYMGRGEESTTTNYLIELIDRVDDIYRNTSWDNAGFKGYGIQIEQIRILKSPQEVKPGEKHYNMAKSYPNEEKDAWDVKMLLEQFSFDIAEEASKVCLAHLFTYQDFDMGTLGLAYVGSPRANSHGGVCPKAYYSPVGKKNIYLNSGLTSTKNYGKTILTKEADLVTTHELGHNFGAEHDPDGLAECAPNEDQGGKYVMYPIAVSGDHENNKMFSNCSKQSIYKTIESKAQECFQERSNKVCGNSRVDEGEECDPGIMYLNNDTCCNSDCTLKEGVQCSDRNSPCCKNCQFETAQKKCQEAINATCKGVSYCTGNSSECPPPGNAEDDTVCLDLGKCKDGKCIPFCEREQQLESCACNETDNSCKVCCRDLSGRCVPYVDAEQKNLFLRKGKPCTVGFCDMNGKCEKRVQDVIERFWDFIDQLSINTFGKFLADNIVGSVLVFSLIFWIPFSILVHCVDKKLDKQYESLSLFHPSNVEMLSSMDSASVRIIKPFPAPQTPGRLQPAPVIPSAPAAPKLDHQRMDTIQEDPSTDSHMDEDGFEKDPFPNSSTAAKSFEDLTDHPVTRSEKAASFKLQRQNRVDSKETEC", "assay": "Inhibition of human ADAM17 assessed as residual activity using Abz-LANAVRSSSR-(DapDnp)-AR-NH2 as substrate at 200 uM by fluorescence assay relative to control", "conditions": "human ADAM17 enzyme, probe Abz-LANAVRSSSR-(DapDnp)-AR-NH2, read-out: Activity"}}}
{"compound": "O=C(CN(Cc1ccc(-c2ccccc2)cc1)Cc1cccc(C(=O)O)c1)NO", "values": [{"measurement": "IC50", "setting": "Meprin A subunit beta", "result": 1280, "unit": "nM"}]}
{"compound": "CCCOc1cccc(CN(CC(=O)NO)Cc2cccc(C(=O)O)c2)c1", "values": [{"measurement": "IC50", "setting": "Meprin A subunit beta", "result": 2250, "unit": "nM"}]}
{"compound": "O=C(CN(Cc1ccc(C(=O)O)cc1)Cc1ccc(C(=O)O)cc1)NO", "values": [{"measurement": "IC50", "setting": "Meprin A subunit beta", "result": 524, "unit": "nM"}]}
{"compound": "O=C(CN(Cc1ccc(Cl)cc1)Cc1cccc(C(=O)O)c1)NO", "values": [{"measurement": "activity at 200 µM", "setting": "MMP2", "result": 69, "unit": "%"}, {"measurement": "activity at 200 µM", "setting": "MMP13", "result": 78, "unit": "%"}, {"measurement": "activity at 200 µM", "setting": "MMP9", "result": 88, "unit": "%"}, {"measurement": "activity at 200 µM", "setting": "ADAM10", "result": 95, "unit": "%"}, {"measurement": "activity at 25 µM", "setting": "CYP2C9", "result": 77, "unit": "%"}, {"measurement": "activity at 25 µM", "setting": "CYP3A4", "result": 79, "unit": "%"}, {"measurement": "viability at 30 µM", "setting": "SH-SY5Y", "result": 97, "unit": "%"}, {"measurement": "viability at 30 µM", "setting": "HepG2", "result": 104, "unit": "%"}, {"measurement": "activity at 200 µM", "setting": "ADAM17", "result": 57, "unit": "%"}]}
{"compound": "Cc1ccc(CN(CC(=O)NO)Cc2cccc(C(=O)O)c2)cc1", "values": [{"measurement": "IC50", "setting": "Meprin A subunit beta", "result": 386, "unit": "nM"}]}
{"compound": "COc1cc(F)c(CN(CC(=O)NO)Cc2cccc(C(=O)O)c2)c(F)c1", "values": [{"measurement": "IC50", "setting": "Meprin A subunit beta", "result": 347, "unit": "nM"}]}
